Assay results taken from patent US10519177B2, “Heterocyclic compounds and uses thereof” (Plexxikon Inc., priority 2013, dated 2019).

Columns and labels:
[1] = target: BRD4-BD12 (1-477) (Homo sapiens (Human), UniProt O60885); assay: Alphascreen binding assay BRD4-BD12; conditions: BRD4(1 2) H4; read-out: Biochemical activity (IC50 μM) BRD4(1 2) H4
Summary of the method: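 In this competition format, compounds displace a biotinylated tetra-acetyl H4 peptide from E. coli-expressed human BRD4 bromodomain constructs captured on nickel chelate beads. The reaction runs at pH 7.5 with 2 mM DTT and detergent for 1 h at room temperature before a 30 min bead step.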

[2] = tested on: MV-4-11 cells; assay: Oncology cell growth assay MV-4-11 (CellTiter Glo); assay type: cell-based; conditions: Homo sapiens, MV4-11, 72 h; read-out: Cell activity (IC50 μM) MV-4-11 3d-Growth
Summary of the method: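 Growth read by CellTiter Glo luminescence after 72 h compound treatment of MLL-AF4-bearing MV-4-11 cells (3000/well). Titration: 8 points, 1:3 steps, maximum 10 μM, 0.2% DMSO final. Data normalized to DMSO wells, four-parameter fit gives pIC50.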

[3] = tested on: bromodomain; assay: at least one of the bromodomain cell assays of Example 57; assay type: cell-based; conditions: at least one of the bromodomain cell assays described in Example 57; read-out: IC50 in at least one of the bromodomain cell assays
[4] = target: BRD4-BD1 (44-164) (Homo sapiens (Human), UniProt O60885); assay: Alphascreen binding assay BRD4-BD1; conditions: BRD4(1) H4; read-out: Biochemical activity (IC50 μM) BRD4(1) H4
Summary of the method: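 AlphaScreen signal (nickel acceptor, streptavidin donor beads, 7.5 µg/ml each, read 30 min after addition) reports displacement of biotin-H4 K5/K8/K12/K16-acetyl peptide from His-BRD4 BD1 (44-164) or tandem BD12 (1-477).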

`Cc1onc(N)c1-c1cnc2ccn(CC3CCC(F)(F)CC3)c2c1` [P-0329, 4-[1-[(4,4-difluorocyclohexyl)methyl]pyrrolo[3,2-b]pyridin-6-yl]-5-methyl-isoxazol-3-amine] was tested, and the IC50 [1] was < 1 µM, the IC50 [2] was 1 to 10 µM and the IC50 [3] was < 10000 nM. For the same compound, the IC50 [4] was < 1 µM.

For `COC(=O)c1ccc(-c2cn(CC3CCC(F)(F)CC3)c3cc(-c4c(C)noc4C)cnc23)cc1` [P-0330, methyl 4-[1-[(4,4-difluorocyclohexyl)methyl]-6-(3,5-dimethylisoxazol-4-yl)pyrrolo[3,2-b]pyridin-3-yl]benzoate], the IC50 [1] was < 1 µM, the IC50 [2] was < 1 µM and the IC50 [3] was < 10000 nM. The IC50 [4] was < 1 µM.

In the case of `Cc1noc(C)c1-c1cnc2c(-c3cnn(C)c3)cn(C(CC#N)c3ccccc3)c2c1` (centres unmarked) [P-0331, 3-[6-(3,5-dimethylisoxazol-4-yl)-3-(1-methylpyrazol-4-yl)pyrrolo[3,2-b]pyridin-1-yl]-3-phenyl-propanenitrile], the IC50 [1] is reported as < 1 µM, the IC50 [2] is reported as < 1 µM and the IC50 [3] is reported as < 10000 nM. The IC50 [4] was < 1 µM.

For `Cc1noc(C)c1-c1cnc2c(-c3cnn(CC(F)(F)F)c3)cn(C(CC#N)c3ccccc3)c2c1` (centres unmarked) [P-0332, 3-[6-(3,5-dimethylisoxazol-4-yl)-3-[1-(2,2,2-trifluoroethyl)pyrazol-4-yl]pyrrolo[3,2-b]pyridin-1-yl]-3-phenyl-propanenitrile], the IC50 [1] was < 1 µM, the IC50 [2] was < 1 µM and the IC50 [3] was < 10000 nM. The IC50 [4] was < 1 µM.

For `Cc1noc(C)c1-c1cnc2c(I)cn(Cc3ccccn3)c2c1` [P-0333, 4-[3-iodo-1-(2-pyridylmethyl)pyrrolo[3,2-b]pyridin-6-yl]-3,5-dimethyl-isoxazole], the IC50 [1] was < 1 µM, the IC50 [2] was < 1 µM and the IC50 [3] was < 10000 nM. The IC50 [4] was < 1 µM.

In the case of `[2H]C([2H])(C1CCC(F)(F)CC1)n1cc(C#CCO)c2ncc(-c3c(C)noc3C)cc21` [P-0370, 3-[1-[dideuterio-(4,4-difluorocyclohexyl)methyl]-6-(3,5-dimethylisoxazol-4-yl)pyrrolo[3,2-b]pyridin-3-yl]prop-2-yn-1-ol], the IC50 [1] is reported as < 1 µM, the IC50 [2] is reported as < 1 µM and the IC50 [3] is reported as < 10000 nM. For the same compound, the IC50 [4] was < 1 µM.

With `Cc1noc(C)c1-c1cnc2c(-c3ccc(C(=O)O)cc3)cn(S(=O)(=O)c3ccccc3)c2c1` [P-0371, 4-[1-(benzenesulfonyl)-6-(3,5-dimethylisoxazol-4-yl)pyrrolo[3,2-b]pyridin-3-yl]benzoic acid] the IC50 [1] was < 1 µM, the IC50 [2] was < 1 µM and the IC50 [3] was < 10000 nM. For the same compound, the IC50 [4] was < 1 µM.

With `Cc1nnn(C)c1-c1cnc2c(-c3cnn(CC(F)(F)F)c3)cn(CC3(F)CCC(F)(F)CC3)c2c1` [P-0372, 6-(3,5-dimethyltriazol-4-yl)-1-[(1,4,4-trifluorocyclohexyl)methyl]-3-[1-(2,2,2-trifluoroethyl)pyrazol-4-yl]pyrrolo[3,2-b]pyridine] the IC50 [1] was < 1 µM, the IC50 [2] was < 1 µM and the IC50 [3] was < 10000 nM. For the same compound, the IC50 [4] was < 1 µM.
